Measurements taken from the supplement of paper PMC11061612.

Legend:
Assay in all cases: Bliss excess, mean over the matrix (fraction); higher = more synergy
[1] = system: HCT-15 (Colorectal Carcinoma)
In short: (§1)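 After 24 hours at 37°C and 5% CO2 in 1536-well plates, cells in DMEM/F12 or RPMI plus 10% FBS received two-drug dose matrices for 72 hours. Viability came from CellTiter-Glo 2.0 luminescence and was scaled as inhibition, anchored at 0 by vehicle wells and at 1 by blank wells. Combination Emax is taken as the second-highest inhibition in the matrix, and Bliss excess as the observed combination effect less EA + EB − EA·EB, with EA and EB the single-agent effects.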

[2] = system: RERF-LC-Sq1 (Squamous Cell Lung Carcinoma)
In short: as §1

[3] = system: NCI-H446 (Small Cell Lung Carcinoma)
In short: as §1

[4] = system: CAL-62 (Thyroid Gland Carcinoma)
In short: as §1

[5] = system: OVMIU (Ovarian Carcinoma)
In short: as §1

[6] = system: L-1236 (Hodgkin's Lymphoma)
In short: as §1

[7] = system: SHP-77 (Small Cell Lung Carcinoma)
In short: as §1

[8] = system: SK-PN-DW (Other Solid Carcinomas)
In short: as §1

[9] = system: KE-37 (T-Lymphoblastic Leukemia)
In short: as §1

[10] = system: HEC-1 (Endometrial Carcinoma)
In short: as §1

[11] = system: PSN1 (Pancreatic Carcinoma)
In short: as §1

[12] = system: REH (B-Lymphoblastic Leukemia)
In short: as §1

[13] = system: WM278 (Melanoma)
In short: as §1

[14] = system: HSC-39 (Gastric Carcinoma)
In short: as §1

[15] = system: OAW-42 (Ovarian Carcinoma)
In short: as §1

[16] = system: NCI-H2342 (Lung Adenocarcinoma)
In short: as §1

[17] = system: IST-MES1 (Mesothelioma)
In short: as §1

[18] = system: RERF-GC-1B (Gastric Carcinoma)
In short: as §1

[19] = system: SF539 (Glioblastoma)
In short: as §1

[20] = system: GB-1 (Glioblastoma)
In short: as §1

Structure (SMILES)	Bliss excess [1]	Bliss excess [2]	Bliss excess [3]	Bliss excess [4]	Bliss excess [5]	Bliss excess [6]	Bliss excess [7]	Bliss excess [8]	Bliss excess [9]	Bliss excess [10]	Bliss excess [11]	Bliss excess [12]	Bliss excess [13]	Bliss excess [14]	Bliss excess [15]	Bliss excess [16]	Bliss excess [17]	Bliss excess [18]	Bliss excess [19]	Bliss excess [20]
CN(C)CCCOc1ccc(-c2ccc3ncc4c(c3c2)n(C2CCOCC2)c(=O)n4C)cn1 [AZD0156] + O=C(c1cc(Cc2n[nH]c(=O)c3ccccc23)ccc1F)N1CCN(C(=O)C2CC2)CC1 [Olaparib] (first compound max 3 µM, partner max 3 µM)	0.007	0.0396	0.0788	0.0939	0.06	-0.0602	0.0544	0.0158	0.0951	-0.0173	0.0124	0.143	0.0011	0.128	0.0145	-0.0504	-0.0141	-0.0079	0.133	0.014
C=CCn1c(=O)c2cnc(Nc3ccc(N4CCN(C)CC4)cc3)nc2n1-c1cccc(C(C)(C)O)n1 [AZD1775] + C1CN(CCC1(C(=O)N[C@@H](CCO)C2=CC=C(C=C2)Cl)N)C3=NC=NC4=C3C=CN4 [Capivasertib] (first compound max 3 µM, partner max 3 µM)	0.0159	-0.0483	0.0213	0.0089	-0.0032	-0.097	-0.0114	0.0265	-0.0132	-0.0424	-0.0238	0.0008	-0.0468	0.0067	-0.0399	-0.0136	-0.0056	-0.0632	-0.0878	-0.0211
CN(CCO)CC[C@H](CSc1ccccc1)Nc1ccc(S(=O)(=O)NC(=O)c2ccc(N3CCC([C@@H](O)c4ccccc4-c4ccc(Cl)cc4)CC3)cc2)cc1S(=O)(=O)C(F)(F)F [AZD4320] + C1CN(CCC1(C(=O)N[C@@H](CCO)C2=CC=C(C=C2)Cl)N)C3=NC=NC4=C3C=CN4 [Capivasertib] (first compound max 1 µM, 7x7, partner max 3 µM)	-0.0435	-0.0223	0.0316	-0.0463	-0.0691	-0.0476	0.0185	-0.0588	0.0185	-0.0759	-0.0264	0.0197	-0.0378	-0.0072	-0.0274	-0.0259	-0.0371	0.0036	-0.0352	-0.0274
CN(CCO)CC[C@H](CSc1ccccc1)Nc1ccc(S(=O)(=O)NC(=O)c2ccc(N3CCC([C@@H](O)c4ccccc4-c4ccc(Cl)cc4)CC3)cc2)cc1S(=O)(=O)C(F)(F)F [AZD4320] + C=CCn1c(=O)c2cnc(Nc3ccc(N4CCN(C)CC4)cc3)nc2n1-c1cccc(C(C)(C)O)n1 [AZD1775] (first compound max 1 µM, partner max 1 µM)	-0.054	-0.0021	0.0462	0.0035	0.0324	0.0006	0.0877	0.0052	0.0578	0.0194	-0.0112	0.0738	0.0846	0.0562	0.0074	0	-0.0274	0.0515	-0.0518	-0.0642
CN(CCO)CC[C@H](CSc1ccccc1)Nc1ccc(S(=O)(=O)NC(=O)c2ccc(N3CCC([C@@H](O)c4ccccc4-c4ccc(Cl)cc4)CC3)cc2)cc1S(=O)(=O)C(F)(F)F [AZD4320] + CCN(CCO)CCCOc1ccc2c(Nc3cc(CC(=O)Nc4cccc(F)c4)[nH]n3)ncnc2c1 [AZD2811] (first compound max 1 µM, 7x7, partner max 1 µM)	-0.0189	0.0012	-0.0505	0.0354	-0.0627	-0.0263	-0.0019	0.0024	-0.0049	-0.0049	-0.0029	0.175	0.0469	-0.0338	-0.0359	-0.036	-0.0265	-0.0034	0.0862	-0.0189
CN(CCO)CC[C@H](CSc1ccccc1)Nc1ccc(S(=O)(=O)NC(=O)c2ccc(N3CCC([C@@H](O)c4ccccc4-c4ccc(Cl)cc4)CC3)cc2)cc1S(=O)(=O)C(F)(F)F [AZD4320] + CN(C)CCCOc1ccc(-c2ccc3ncc4c(c3c2)n(C2CCOCC2)c(=O)n4C)cn1 [AZD0156] (first compound max 1 µM, 7x7, partner max 1 µM)	-0.0438	-0.0601	-0.0002	-0.005	-0.0427	-0.0001	0.0223	-0.0302	-0.0045	-0.0414	-0.0308	0.0092	-0.0148	0.0099	-0.0088	-0.0214	-0.041	0.0211	-0.0163	-0.0272
CN(CCO)CC[C@H](CSc1ccccc1)Nc1ccc(S(=O)(=O)NC(=O)c2ccc(N3CCC([C@@H](O)c4ccccc4-c4ccc(Cl)cc4)CC3)cc2)cc1S(=O)(=O)C(F)(F)F [AZD4320] + C[C@@H]1COCCN1C2=NC(=NC(=C2)C3(CC3)[S@](=N)(=O)C)C4=C5C=CNC5=NC=C4 [AZD6738] (first compound max 1 µM, 7x7, partner max 10 µM)	0.0099	-0.0082	0.0178	0.0112	0.0069	0.0169	-0.0032	-0.0551	-0.0133	0.0028	-0.0798	0.0532	-0.0404	-0.0108	-0.0315	-0.0429	-0.0338	0.072	-0.0706	-0.0314
CN(CCO)CC[C@H](CSc1ccccc1)Nc1ccc(S(=O)(=O)NC(=O)c2ccc(N3CCC([C@@H](O)c4ccccc4-c4ccc(Cl)cc4)CC3)cc2)cc1S(=O)(=O)C(F)(F)F [AZD4320] + C[C@@H](Nc1cc(F)cc(F)c1)c1cc(C(=O)N(C)C)cc2c(=O)cc(N3CCOCC3)oc12 [AZD8186] (first compound max 1 µM, 7x7, partner max 3 µM)	0.0162	-0.0169	0.0281	0.046	-0.0637	0.0082	0.0216	-0.0087	0.0866	0.0133	-0.0651	0.0353	0.035	0.0229	0.0688	-0.0065	0.0552	0.0112	0.0425	-0.0289
CN(CCO)CC[C@H](CSc1ccccc1)Nc1ccc(S(=O)(=O)NC(=O)c2ccc(N3CCC([C@@H](O)c4ccccc4-c4ccc(Cl)cc4)CC3)cc2)cc1S(=O)(=O)C(F)(F)F [AZD4320] + Cc1cc2ncnn2cc1Nc1ncc2c(n1)n(C1CCOCC1)c(=O)n2C [AZD7648] (first compound max 1 µM, 7x7, partner max 10 µM)	-0.0202	-0.0418	0.0292	-0.0086	-0.0652	-0.0299	-0.0012	-0.0411	0.0363	-0.0402	-0.0361	0.0041	-0.0277	0.0221	-0.0118	-0.0475	-0.042	0.0231	0.0095	-0.0225
CN(CCO)CC[C@H](CSc1ccccc1)Nc1ccc(S(=O)(=O)NC(=O)c2ccc(N3CCC([C@@H](O)c4ccccc4-c4ccc(Cl)cc4)CC3)cc2)cc1S(=O)(=O)C(F)(F)F [AZD4320] + Cn1cnc2c(F)c(Nc3ccc(Br)cc3Cl)c(C(=O)NOCCO)cc21 [Selumetinib] (first compound max 1 µM, 7x7, partner max 3 µM)	0.0267	0.0158	-0.0039	-0.0051	-0.0595	0.0288	0.0429	-0.0198	0.0464	-0.018	0.0043	-0.0369	0.0582	0.0414	-0.0115		0.0318	0.022	0.0176	0.0313
Cc1c2c(nn1C)CSCc1cc(n(C)n1)CSc1cc(c3ccccc3c1)OCCCc1c(C(=O)O)n(C)c3c-2c(Cl)ccc13 [AZD5991] + C1CN(CCC1(C(=O)N[C@@H](CCO)C2=CC=C(C=C2)Cl)N)C3=NC=NC4=C3C=CN4 [Capivasertib] (first compound max 1 µM, 7x7, partner max 3 µM)	0.002	0.0125	0.0419		0.0023	0.0039	-0.0033	0.032	-0.0409	-0.025	-0.0533	-0.0557	-0.0498	0.0308	0.0312	0.0351	-0.0195	-0.0124	-0.0043	-0.0365
Cc1c2c(nn1C)CSCc1cc(n(C)n1)CSc1cc(c3ccccc3c1)OCCCc1c(C(=O)O)n(C)c3c-2c(Cl)ccc13 [AZD5991] + CN(C)CCCOc1ccc(-c2ccc3ncc4c(c3c2)n(C2CCOCC2)c(=O)n4C)cn1 [AZD0156] (first compound max 1 µM, 7x7, partner max 1 µM)	0.0369	0.0372	0.052	-0.0061	-0.0328	0.0295	-0.0033	-0.0117	0.0257	-0.0025		-0.0321	-0.0196	-0.0201	0.0454	-0.016	0.0029	0.0263	-0.0184	0.0075
Cc1c2c(nn1C)CSCc1cc(n(C)n1)CSc1cc(c3ccccc3c1)OCCCc1c(C(=O)O)n(C)c3c-2c(Cl)ccc13 [AZD5991] + C[C@@H](Nc1cc(F)cc(F)c1)c1cc(C(=O)N(C)C)cc2c(=O)cc(N3CCOCC3)oc12 [AZD8186] (first compound max 1 µM, 7x7, partner max 3 µM)	-0.01	-0.0353	0.183		-0.0181	0.0233	-0.0379	0.0126	-0.0459	-0.0143	-0.0407	-0.024	0.0096	-0.0069	0.0262	-0.0027	-0.0524	-0.0188	-0.0052	-0.0152
